{"source": "paper PMC9781827", "about": "“Isolation and Identification of Anti-Inflammatory Peptide from Goose Blood Hydrolysate to Ameliorate LPS-Mediated Inflammation and Oxidative Stress in RAW264.7 Macrophages” (Molecules, 2022)", "type_in_all_cases": "cell-based", "key": {"[1]": {"system": "IL-1β", "test": "IL-1β level by ELISA in culture medium, model of LPS-mediated RAW264.7 macrophage inflammation", "details": "LPS group: LPS (1.0 μg/mL) alone, 24 h; mean ± S.D., n = 3", "description": "(§1) The anti-inflammatory activity of the peptides was determined according to the methods of a previous study. The anti-inflammatory activity of different fractions was evaluated by measuring the levels of the inflammatory cytokines (TNF-α, IL-1β and IL-6) in a model of LPS-induced macrophage inflammation with ELISA kits (Jiangsu Enzyme marker Biotechnology Co., Ltd., Yancheng, China). […] A 20 mmol/L Tris-HCl (pH 8.0) solution was used as the start buffer and 20 mmol/L Tris-HCl/1 mol/L NaCl (pH 8.0) was used as elution buffer. Elution program: (1) wash with 5 column volumes of starting buffer; (2) elute with 10 column volumes of 50% elution buffer and 50% start buffer; (3) elute with 5 column volumes of 100% elution buffer. The above flow rates were 5 mL/min. The fractions were detected at 280 nm by an ultraviolet detector and collected by an automatic fraction collector.\n(§2) The method of RAW264.7 macrophage culture and treatments were based on the study of Li et al.. […] Macrophages from passages 5 to 10 were selected to seed on 96-well culture plates at a density of 4 × 10^5 cells/well and cultured with different concentrations of LPS (0.5 μg/mL, 1.0 μg/mL and 2.0 μg/mL) for 24 h. The optimal concentration of LPS for inducing inflammation in the RAW264.7 macrophage was ensured according to cell viability. […] The ability of GBP to protect RAW264.7 macrophages was evaluated. […]"}, "[2]": {"system": "IL-6", "test": "IL-6 level by ELISA in culture medium, model of LPS-mediated RAW264.7 macrophage inflammation", "details": "LPS group: LPS (1.0 μg/mL) alone, 24 h; mean ± S.D., n = 3", "description": "as §1, §2"}, "[3]": {"system": "NO", "test": "NO level in LPS-mediated RAW264.7 macrophages culture medium (spectrophotometric kit)", "details": "LPS group (CTRL 6.47 ± 1.29), mean ± S.D., n = 3", "description": "The culture medium was collected and centrifuged at 3000× g for 10 min. Then, the inflammatory cytokines levels of TNF-α (MB-50051A), IL-1β (MB-50064B) and IL-6 (MB-50054A) in the culture medium were determined with ELISA kits (Jiangsu Enzyme marker Biotechnology Co., Ltd., Yancheng, China). […] (7) Add 50 μL of stop solution to each well, and measure its absorbance value at 450 nm wavelength. The activities of SOD, GSH-Px and the levels of ROS and Nitric oxide (NO) in macrophages were determined with spectrophotometric kits. […] The absorbance value of miscible liquid was measured at 450 nm wavelength by a multifunctional microplate reader; GSH-Px: 0.2 mL of sample was mixed with 0.2 mL GSH-Px (1 mmol/L) and performed at 37 °C for 5 min. […] The absorbance value was measured at 412 nm wavelength by a multifunctional microplate reader; ROS: DCFH-DA probe was added directly to serum-free medium: DCFH-DA was generally diluted with serum-free medium at a final concentration of 10 µM at 1:1000. […] In general, obvious green fluorescence can be observed in positive control cells after 20 min of stimulation. […] It can also be detected according to FITC fluorescence detection conditions. The results were expressed as fluorescence values."}}, "data": [{"substance": "lipopolysaccharide [LPS]", "values": [{"measurement": "level of IL-1β", "setting": "[1]", "value": "485.75 ± 50.29", "unit": "pg/mL"}, {"measurement": "level of IL-6", "setting": "[2]", "value": "373.01 ± 12.49", "unit": "pg/mL"}, {"measurement": "level of NO", "setting": "[3]", "value": "28.63 ± 2.48", "unit": "μM/L"}]}]}
